For one molecule, IC50 results are on record in paper PMC6197228, “Inhibition of TBK1/IKKε Promotes Regeneration of Pancreatic β-cells” (Scientific Reports, 2018).

Holding throughout (format): biochemical
In one assay the target is T1, IκB kinase ε (IKKε) (Homo sapiens, UniProt Q14164).
T1 construct: gene IKBKE
T1 sequence (Q14164 1-716): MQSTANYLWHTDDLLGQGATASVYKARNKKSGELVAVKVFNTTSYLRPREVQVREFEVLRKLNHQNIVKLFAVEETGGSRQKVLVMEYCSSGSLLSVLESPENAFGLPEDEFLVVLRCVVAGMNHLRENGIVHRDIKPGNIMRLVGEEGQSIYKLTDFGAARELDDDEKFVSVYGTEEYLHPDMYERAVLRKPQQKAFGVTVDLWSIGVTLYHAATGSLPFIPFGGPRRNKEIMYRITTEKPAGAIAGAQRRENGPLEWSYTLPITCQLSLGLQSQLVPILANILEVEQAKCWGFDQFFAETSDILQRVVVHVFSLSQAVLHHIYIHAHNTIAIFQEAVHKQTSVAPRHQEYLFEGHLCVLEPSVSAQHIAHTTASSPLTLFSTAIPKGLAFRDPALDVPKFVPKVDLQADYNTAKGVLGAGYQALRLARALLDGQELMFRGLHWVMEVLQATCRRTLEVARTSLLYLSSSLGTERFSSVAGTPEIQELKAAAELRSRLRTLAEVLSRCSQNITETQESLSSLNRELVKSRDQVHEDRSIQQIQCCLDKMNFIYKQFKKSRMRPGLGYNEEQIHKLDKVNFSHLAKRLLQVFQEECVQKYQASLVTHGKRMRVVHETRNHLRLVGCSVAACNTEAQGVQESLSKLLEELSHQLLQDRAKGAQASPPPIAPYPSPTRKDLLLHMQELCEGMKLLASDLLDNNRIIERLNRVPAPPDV
Briefly: kinase profiling, dose response IC50.

Assay [1] deals with T2, TANK-binding kinase 1 (TBK1) (Homo sapiens, UniProt Q9UHD2).
T2 sequence (Q9UHD2 1-729): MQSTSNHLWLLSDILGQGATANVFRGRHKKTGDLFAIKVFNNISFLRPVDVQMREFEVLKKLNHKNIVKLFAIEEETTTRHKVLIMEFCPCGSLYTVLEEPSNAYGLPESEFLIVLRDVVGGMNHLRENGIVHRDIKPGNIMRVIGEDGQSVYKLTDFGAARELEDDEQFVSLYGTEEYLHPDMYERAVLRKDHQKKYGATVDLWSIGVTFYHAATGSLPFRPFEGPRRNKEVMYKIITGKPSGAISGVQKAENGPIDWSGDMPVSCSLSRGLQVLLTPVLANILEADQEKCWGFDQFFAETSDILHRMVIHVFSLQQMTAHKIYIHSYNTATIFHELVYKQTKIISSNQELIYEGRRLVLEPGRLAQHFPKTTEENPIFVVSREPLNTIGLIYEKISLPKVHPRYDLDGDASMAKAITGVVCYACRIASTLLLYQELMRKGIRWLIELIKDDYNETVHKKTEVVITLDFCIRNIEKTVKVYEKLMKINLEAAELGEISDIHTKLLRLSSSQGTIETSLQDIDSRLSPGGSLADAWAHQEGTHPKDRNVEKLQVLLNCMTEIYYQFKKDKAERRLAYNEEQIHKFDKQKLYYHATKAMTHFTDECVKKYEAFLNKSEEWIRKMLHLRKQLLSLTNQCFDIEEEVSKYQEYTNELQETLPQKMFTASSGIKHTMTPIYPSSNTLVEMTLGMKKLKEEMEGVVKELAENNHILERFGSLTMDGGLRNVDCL
Briefly: kinase profiling, dose response IC50.

Another assay concerns the target T3, IKKβ (Homo sapiens, UniProt O14920).
T3 construct: gene IKBKB
T3 sequence (O14920 1-756): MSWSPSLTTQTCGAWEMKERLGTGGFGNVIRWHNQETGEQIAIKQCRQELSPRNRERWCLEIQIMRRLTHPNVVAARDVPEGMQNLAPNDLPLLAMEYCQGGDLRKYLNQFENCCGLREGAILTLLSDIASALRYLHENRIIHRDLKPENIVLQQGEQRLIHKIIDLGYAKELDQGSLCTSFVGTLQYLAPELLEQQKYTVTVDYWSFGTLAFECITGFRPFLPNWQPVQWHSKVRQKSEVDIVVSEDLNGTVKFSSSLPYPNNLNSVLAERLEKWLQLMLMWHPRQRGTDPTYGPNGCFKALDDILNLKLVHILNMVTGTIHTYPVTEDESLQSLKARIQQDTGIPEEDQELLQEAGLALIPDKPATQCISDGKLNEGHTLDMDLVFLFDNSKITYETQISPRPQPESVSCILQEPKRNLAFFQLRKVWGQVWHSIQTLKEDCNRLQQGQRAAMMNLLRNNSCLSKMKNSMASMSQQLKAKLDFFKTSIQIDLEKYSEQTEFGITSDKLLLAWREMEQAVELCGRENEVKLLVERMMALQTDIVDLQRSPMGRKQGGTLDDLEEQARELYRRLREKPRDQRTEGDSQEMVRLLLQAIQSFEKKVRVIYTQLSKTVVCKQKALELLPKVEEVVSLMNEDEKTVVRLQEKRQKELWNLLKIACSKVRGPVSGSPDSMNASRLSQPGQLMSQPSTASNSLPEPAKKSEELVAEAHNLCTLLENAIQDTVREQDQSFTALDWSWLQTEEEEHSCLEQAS
Briefly: kinase profiling, dose response IC50 (selectivity).

Another assay concerns the target T4, IKKα (Homo sapiens, UniProt O15111).
T4 construct: gene CHUK
T4 sequence (O15111 1-745): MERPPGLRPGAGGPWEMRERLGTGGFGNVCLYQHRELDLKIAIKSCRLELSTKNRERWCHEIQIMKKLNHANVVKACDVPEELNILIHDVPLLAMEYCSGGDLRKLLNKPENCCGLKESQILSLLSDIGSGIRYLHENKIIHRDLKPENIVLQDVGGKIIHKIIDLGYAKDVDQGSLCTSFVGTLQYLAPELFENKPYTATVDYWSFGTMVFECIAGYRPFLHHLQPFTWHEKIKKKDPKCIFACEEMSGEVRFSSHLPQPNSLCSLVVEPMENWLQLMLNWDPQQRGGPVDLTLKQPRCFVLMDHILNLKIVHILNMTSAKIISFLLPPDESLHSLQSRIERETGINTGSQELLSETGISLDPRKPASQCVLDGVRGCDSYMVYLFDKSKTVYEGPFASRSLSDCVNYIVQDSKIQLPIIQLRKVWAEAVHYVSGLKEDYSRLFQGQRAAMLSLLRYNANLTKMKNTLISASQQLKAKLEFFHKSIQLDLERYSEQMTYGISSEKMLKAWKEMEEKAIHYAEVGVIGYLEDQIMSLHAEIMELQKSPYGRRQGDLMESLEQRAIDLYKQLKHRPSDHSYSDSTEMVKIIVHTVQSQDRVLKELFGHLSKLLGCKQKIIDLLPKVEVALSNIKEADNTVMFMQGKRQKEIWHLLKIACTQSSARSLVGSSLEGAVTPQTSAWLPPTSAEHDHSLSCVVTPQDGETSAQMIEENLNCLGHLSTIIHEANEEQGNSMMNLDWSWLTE
Briefly: kinase profiling, dose response IC50 (selectivity).

With `O=C(O)/C=C/c1ccc2noc(-c3ccccc3)c2c1` [PIAA, (E)-3-(3-phenylbenzo[c]isoxazol-5-yl)acrylic acid], the IC50 was about 1.07 µM on IκB kinase ε (IKKε), 0.4 µM in assay [1], 50.5 µM on IKKβ and 47.2 µM against IKKα.

In general, IC50 refers to the concentration at which inhibition is half-maximal. Low values mean greater potency, high ones weaker potency.
